The record followed here is ChEMBL document CHEMBL4184164, “Design, synthesis and biological evaluation of novel oseltamivir derivatives as potent neuraminidase inhibitors” (Bioorg Med Chem Lett, 2017).

One experiment deals with T1, Sialidase (Clostridium perfringens, UniProt P10481).
T1 sequence (P10481 whole entry): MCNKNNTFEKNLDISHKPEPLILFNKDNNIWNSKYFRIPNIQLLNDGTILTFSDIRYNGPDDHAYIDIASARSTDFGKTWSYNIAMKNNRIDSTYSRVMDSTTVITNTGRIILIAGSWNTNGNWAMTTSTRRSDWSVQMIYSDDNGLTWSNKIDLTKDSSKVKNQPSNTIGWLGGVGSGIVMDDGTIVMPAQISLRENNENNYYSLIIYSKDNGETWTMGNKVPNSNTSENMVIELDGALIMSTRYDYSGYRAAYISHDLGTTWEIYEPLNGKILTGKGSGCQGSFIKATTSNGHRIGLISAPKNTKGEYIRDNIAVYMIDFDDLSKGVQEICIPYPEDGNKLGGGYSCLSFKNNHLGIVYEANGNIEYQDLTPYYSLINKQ
Kind of experiment: Inhibition of Clostridium perfringenes neuraminidase activity using 4-methylumbelliferyl-1-alpha-D-N-acetylneuramic acid sodium salt hydrate as substrate by fluorescence based assay.

The test system of another experiment is Influenza A virus. The experiment is described as follows: microbe, parasite or virus in culture. To be noted: A/WSN/1933(H1N1), MDCK.

As for `CC(=O)N[C@H]1[C@H](O)C=C(C(=O)O)C[C@@H]1N=C(N)N`, at Sialidase (read-out: pIC50 (converted)), the IC50 was 100 nM.
As for `CCCCCCC[C@H](CC)O[C@@H]1C=C(C(=O)O)C[C@H](N)[C@H]1NC(C)=O`, the IC50 on Sialidase (read-out: pIC50 (converted)) is 1 nM.
The same measure, in the same setting: for `CC[C@@H](C)O[C@@H]1C=C(C(=O)O)C[C@H](NC(=N)N)[C@H]1NC(C)=O` the value was 0.5 nM; for `CC(=O)N[C@H]1[C@H](N(C)CCc2ccccc2)C=C(C(=O)O)C[C@@H]1N`, 100 nM.
On the same count and under the same terms, the figure for `CC(=O)N[C@@H]1[C@@H](N)CC(C(=O)O)=C[C@H]1NC(=O)C(C)C` is 6400 nM; for `CC[C@@H](CCC1CCCCC1)O[C@@H]1C=C(C(=O)O)C[C@H](N)[C@H]1NC(C)=O` it is 1 nM.
Same read-out and setting: the figure for `CCCCO[C@@H]1C=C(C(=O)O)C[C@H](N=C(N)N)[C@H]1NC(C)=O` is 3 nM; for `CCCN[C@@H]1C=C(C(=O)O)C[C@H](N)[C@H]1NC(C)=O` it is 200 nM.
As for `CC(=O)N[C@@H]1[C@@H](N)CC(C(=O)O)=C[C@H]1OCCCc1ccc(-c2ccccc2)cc1`, the IC50 on Sialidase (read-out: pIC50 (converted)) was 89.9 nM.
In the case of `CCC(=O)N[C@@H]1C=C(C(=O)O)C[C@H](N)[C@H]1NC(C)=O`, at Sialidase (read-out: pIC50 (converted)), the IC50 is 2700 nM.
With `CCCN(CC)[C@@H]1C=C(C(=O)O)C[C@H](N)[C@H]1NC(C)=O`, on Sialidase (read-out: pIC50 (converted)), the IC50 was 89.9 nM.
As for `CC[C@H](C)O[C@@H]1C=C(C(=O)O)C[C@H](NC(=N)N)[C@H]1NC(C)=O`, at Sialidase (read-out: pIC50 (converted)), the IC50 is 0.5 nM.
With `CC(=O)N[C@@H]1[C@@H](N)CC(C(=O)O)=C[C@H]1Oc1ccccc1`, the IC50 at Sialidase (read-out: pIC50 (converted)) was 530 nM.
For `CCCN(CCC)[C@@H]1C=C(C(=O)O)C[C@H](N)[C@H]1NC(C)=O`, the IC50 on Sialidase (read-out: pIC50 (converted)) is 12 nM.
The same measure, in the same setting: for `CCC(CC)N(C)[C@@H]1C=C(C(=O)O)C[C@H](N)[C@H]1NC(C)=O` the value was 6 nM; for `C=CC[C@H](CC)O[C@@H]1C=C(C(=O)O)C[C@H](N)[C@H]1NC(C)=O`, 1 nM.
The same measure, in the same setting: for `CC[C@H](C)O[C@@H]1C=C(C(=O)O)C[C@H](N)[C@H]1NC(C)=O` the value was 10 nM; for `CC(=O)N[C@@H]1[C@@H](N)CC(C(=O)O)=C[C@H]1OCCC(F)(F)F`, 225 nM; for `CC(=O)N[C@@H]1[C@@H](N)CC(C(=O)O)=C[C@H]1OC(C)C`, 180 nM.
In the case of `CC(=O)N[C@@H]1[C@@H](N)CC(C(=O)O)=C[C@H]1OC1CCCC1`, the IC50 at Sialidase (read-out: pIC50 (converted)) was 22 nM.
On the same count and under the same terms, for `CC(=O)N[C@@H]1[C@@H](N)CC(C(=O)O)=C[C@H]1OCC(C)C` the value was 200 nM.
As to `CCOC(=O)C1=C[C@@H](OC(CC)CC)[C@H](NC(C)=O)[C@@H](N)C1` [OSELTAMIVIR], the IC50 on Sialidase (read-out: IC50) was found to be 61100 nM; in the experiment with Influenza A virus, 579 nM.
For the molecule `CCCCN(CC)[C@@H]1C=C(C(=O)O)C[C@H](N)[C@H]1NC(C)=O`, the IC50 on Sialidase (read-out: pIC50 (converted)) is 84.9 nM.
Still for that read-out and setting: for `CC[C@@H](CC1CCCCC1)O[C@@H]1C=C(C(=O)O)C[C@H](N)[C@H]1NC(C)=O` the value was 16 nM.
The same measure, in the same setting: for `CCC(CC)N[C@@H]1C=C(C(=O)O)C[C@H](N)[C@H]1NC(C)=O` the value was 11 nM; for `CCCCN(C)[C@@H]1C=C(C(=O)O)C[C@H](N)[C@H]1NC(C)=O`, 180 nM.
Regarding `CCC(CC)C(=O)N[C@@H]1C=C(C(=O)O)C[C@H](N)[C@H]1NC(C)=O`, the IC50 at Sialidase (read-out: pIC50 (converted)) was 4000 nM.
Regarding `CCC(CC)[C@H](NC(C)=O)[C@@H]1[C@H](O)[C@@H](C(=O)O)C[C@H]1NC(=N)N` [PERAMIVIR ANHYDROUS], the IC50 on Sialidase (read-out: IC50) came out at 39600 nM; in the experiment on Influenza A virus, 1720 nM.
For the molecule `CC(=O)N[C@@H]1[C@@H](N)CC(C(=O)O)=C[C@H]1OCc1ccccc1`, the IC50 at Sialidase (read-out: pIC50 (converted)) was 619 nM.
Same read-out and setting: the figure for `CCC(CC)O[C@@H]1C(F)=C(C(=O)O)C[C@H](N)[C@H]1NC(C)=O` is 3 nM; for `CC[C@H](CCc1ccccc1)O[C@@H]1C=C(C(=O)O)C[C@H](N)[C@H]1NC(C)=O` it is 12 nM; for `CC(=O)N[C@H]1[C@H](N(C)C2CCCCC2)C=C(C(=O)O)C[C@@H]1N` it is 200 nM.
With `CCCO[C@@H]1C=C(C(=O)O)C[C@H](N=C(N)N)[C@H]1NC(C)=O`, at Sialidase (read-out: pIC50 (converted)), the IC50 is 2 nM.
Regarding `CCC(CC)O[C@@H]1C=C(C(=O)O)C[C@H](NC(=N)N)[C@H]1NC(C)=O`, at Sialidase (read-out: pIC50 (converted)), the IC50 was 0.5 nM.
On the same count and under the same terms, for `COCO[C@@H]1C=C(C(=O)O)C[C@H](N)[C@H]1NC(C)=O` the value was 2000 nM.
